# Assay results as given in publication PMC7759686, “Pharmacokinetics and Immunological Effects of Romidepsin in Rhesus Macaques” (Frontiers in Immunology, 2020).
# Where “and” joins values, the source holds several entries; their conditions need not be identical. Identical values can stand only once.
# Legend:
# [1] = Serum chemistries (hepato-, nephro- and general toxicity markers); format: in vivo, rhesus macaques (Macaca mulatta); details: 3 RMs, 7 mg/m^2
# Text: (§1) Complete blood counts (CBCs) and serum chemistries were monitored in the collected samples from both the RMD-treated RMs and control RMs by either the Marshfield Laboratories (Cleveland, OH), IDEXX Reference Laboratories (IDEXX Laboratories, Inc, Westbrook, ME) or in house, using a ProCyte Hematology Analyzer (IDEXX Laboratories, Inc).
# [2] = tested on: circulating lymphocytes, T cells, B cells and neutrophils; experiment: Immune cell counts in blood (CBC, TruCount flow cytometry); format: in vivo, rhesus macaques (Macaca mulatta); details: for CD8+ T cells in blood: baseline 1,047; for CD4+ T cells in blood: baseline 2,518; for total circulating lymphocytes: baseline 5,050, 3 RMs, 7 mg/m^2
# Procedure: Figure 1 illustrates the sampling schedule. […] Intestinal biopsies were taken at 13 days prior to infusion; intestinal resections were taken at 30 days before infusion and 1 day postinfusion; LNs were collected at 30 and 13 days prior to infusion, 6 h postinfusion, and 1 and 7 days postinfusion. The samples collected during the first round of RMD treatment were used for immune population dynamics and functionality.
# as §1
# (§2) Whole blood was stained to monitor the impact of RMD on the immune cell populations. TruCount was used to determine absolute counts of CD3^+, CD4^+, CD8^+ T cells and CD20^+ B cells as described ([51]–[53]). Fifty microliters of whole blood were stained with antibodies against CD3-V450, CD4-APC, CD20-APC-H7, and CD45-PerCP in TruCount tubes (BD Biosciences, Franklin Lakes, NJ, USA) with a set number of fluorescent beads as internal standards. CD8^+ T cell counts were assessed through the ratio of CD8^+ to CD3^+ T cells. Whole blood was also stained with combinations of the following fluorescently labeled antibodies: CD3-V450 (SP34-2), CD4-APC (L200), CD8-PE-CF594 (RPA-T8), CD14-PE-Cy7 (M5E2), CD38-FITC (AT-1) (Stemcell, Vancouver, BC, CA), CD20-APC-H7 (2H7), CD69-APC-Cy7 (FN50), CD95-FITC (DX2), CCR5-PE (3A9), Annexin V-FITC, HLA-DR-PE-Cy7 (L243), NKG2A-PE (Z199) (Beckman Coulter, Pasadena, CA), Strepavidin-Alexa Fluor 750 (Life Technologies, Carlsbad, CA), Biotin-CCR7 (eBioscience, San Diego, CA), LIVE/DEAD Fixable Blue Dead Cell Stain Kit (Thermo Fisher Scientific); all antibodies were from BD Biosciences unless otherwise noted. For Ki-67-PE (B56) intracellular staining, cells were fixed and permeabilized prior to Ki-67 staining. Data were acquired with a LSR-II flow cytometer (BD Biosciences) or Fortessa flow cytometer (BD Biosciences) and analyzed with FlowJo software 10.7.0 (Treestar, Ashland, OR), as described ([51], [54]).
# [3] = tested on: peripheral CD4+ and CD8+ T cells; experiment: Apoptosis and activation of peripheral T cells (whole blood flow cytometry); format: in vivo, rhesus macaques (Macaca mulatta); details: n = 3
# Procedure: as §2
# CD3+ T cells in tissues = experiment: CD3+ T cell frequency in intestine and LNs by immunofluorescence; format: in vivo, rhesus macaques (Macaca mulatta); details: for CD3+ T cells in superficial LNs, area fraction: average, pretreatment 30%, 7 mg/m^2
# Procedure: CD3^+ T cell frequency in the intestine and LNs was assessed through immunofluorescence (IF), as described ([55]). Fixed, paraffin-embedded tissues from the three RMs were cut and placed onto microscope slides. The slides were treated three times with xylene (Thermo Fisher Scientific), run through an ethanol battery, washed with dH2O, and placed into 1× PBS (Thermo Fisher Scientific). Slides were microwaved with Antigen Unmasking Solution (Vector Labs, Burlingame, CA) for antigen retrieval. Once slides had cooled, they were washed three times in 1× PBS and the tissues were circled with Immedge Pen (Vector Labs) to create a hydrophobic barrier. Dako Serum-Free Protein Block (Agilent, Santa Clara, CA) was added to the tissues. The Dako Protein Block was dumped off and the slides incubated with mouse α-CD3 (Agilent). The primary antibody was dumped off and slides washed in 1× PBS as previously noted. The remaining steps were completed in the dark. The slides were incubated with the secondary antibody, goat α-mouse (Alexa Fluor 488) (Invitrogen) followed by a subsequent 1× PBS wash. The slides were incubated with DAPI (Millipore Sigma, Burlington, MA), and then dumped off and washed with 1× PBS, followed by dH2O, and dried. Coverslips were then mounted to the slides with fluorescent mounting media (Agilent). Slides were visualized and imaged with Zeiss Imager M1 microscope and Axiovision software [V4.8.2.0 (Carl Zeiss AG, Oberkochen, Germany)]. Image quantifications were performed using the FIJI distribution ([56]) of ImageJ 1.52c ([57]), where positive fluorescent signals were isolated by setting color thresholds and the percent positive area was calculated.
# [4] = RMD pharmacokinetics in plasma and tissues (LC-MS/MS); details: 7 mg/m^2 4-h IV infusion; for RMD plasma concentration at 2 h postinfusion: second round
# [5] = 3 days postinfusion, baseline 22
# [6] = 4 days postinfusion, baseline 22
# [7] = kel from mean concentration-time profile of 3 RMs
structure (smiles),measurement,setting,value
"C/C=C1\NC(=O)[C@H]2CSSCC/C=C/[C@H](CC(=O)N[C@H](C(C)C)C(=O)N2)OC(=O)[C@H](C(C)C)NC1=O [RMD, romidepsin]",alanine aminotransferase (ALT),"[1]; 18 h postinfusion, baseline 22, normal range 14-94, not significant",98 U/L
same,aspartate aminotransferase (AST),"[1]; 18 h postinfusion, baseline 39, normal range 31-108, p < 0.05",186 U/L
same,creatinine,"[1]; 3 days postinfusion, baseline 0.60",0.63 mg/dL
same,alanine aminotransferase (ALT),[1]; [5],89 U/L
same,urea nitrogen,[1]; [5],29 mg/dL
same,aspartate aminotransferase (AST),"[1]; 3 days postinfusion, baseline 39",101 U/L
same,lactate dehydrogenase (LDH),"[1]; 3 days postinfusion, baseline 702, normal 514 ± 187","1,562 U/L"
same,alanine aminotransferase (ALT),[1]; [6],80 U/L
same,urea nitrogen,[1]; [6],25 mg/dL
same,aspartate aminotransferase (AST),"[1]; 4 days postinfusion, baseline 39",91 U/L
same,creatinine kinase (CK),"[1]; 4 days postinfusion, baseline 367","1,740 U/L"
same,lactate dehydrogenase (LDH),"[1]; 4 days postinfusion, baseline 702","1,323 U/L"
same,creatinine,"[1]; peak, 18 h postinfusion, baseline 0.60, normal range 0.5-1.2",0.77 mg/dL
same,urea nitrogen,"[1]; peak, 18 h postinfusion, baseline 22, normal range 8-25",35 mg/dL
same,creatinine kinase (CK),"[1]; peak, 18 h postinfusion, baseline 367, normal range 132-505, p < 0.05","7,445 U/L"
same,CD8+ T cells in blood,"[2]; 12 h postinfusion, p < 0.05",204 cells/μl
same,CD4+ T cells in blood,"[2]; 12 h postinfusion, p < 0.05",402 cells/μl
same,neutrophils in blood,"[2]; 12 h postinfusion, baseline 3,273, normal 6.2 ± 2.4 × 10^3, not significant","14,287 cells/μl"
same,total circulating lymphocytes,"[2]; 12 h postinfusion, p < 0.05","1,463 cells/μl"
same,CD8+ T cells in blood,"[2]; 1 day postinfusion, p < 0.05",178 cells/μl
same,CD4+ T cells in blood,"[2]; 1 day postinfusion, p < 0.05",496 cells/µl
same,neutrophils in blood,"[2]; 1 day postinfusion, baseline 3,273","9,123 cell/µl"
same,CD8+ T cells in blood,"[2]; 2 days postinfusion, p < 0.05",204 cells/μl
same,CD4+ T cells in blood,"[2]; 2 days postinfusion, p < 0.05",366 cells/μl
same,total circulating lymphocytes,"[2]; 2 days postinfusion, p < 0.05","1,753 cells/μl"
same,CD4+ T cells in blood,[2]; 5 days postinfusion (recovery),"1,305 cells/μl"
same,CD8+ T cells in blood,[2]; 5 days postinfusion,634 cells/μl
same,neutrophils in blood,"[2]; 5 days postinfusion, baseline 3,273","2,427 cells/μl"
same,CD8+ T cells in blood,[2]; 7 days postinfusion (near full recovery),741 cells/μl
same,B cells (CD3−CD20+) in blood,"[2]; RMD treated RMs, no change in saline control group",declined
same,frequency of apoptotic CD8+ T cells,"[3]; 2 days postinfusion, baseline 2.1%, Annexin V and Live/Dead",4.6%
same,frequency of apoptotic CD4+ T cells,"[3]; after RMD administration, baseline 3.7%, Annexin V and Live/Dead",1.8%
same,expression of T cell activation markers CD69 and Ki-67 on circulating CD4+ and CD8+ T cells,"[3]; by 1 day postinfusion, not significant",increased
same,"CD3+ T cells in superficial LNs, area fraction",CD3+ T cells in tissues; 6 h postinfusion,40%
same,"CD3+ T cells in intestine, area fraction","CD3+ T cells in tissues; 1 day postinfusion, three RMs, pretreatment 5.8%, not significant",7.6%
same,"CD3+ T cells in superficial LNs, area fraction",CD3+ T cells in tissues; 7 days postinfusion,41%
same,"CD3+ T cells in mesenteric LNs, area fraction","CD3+ T cells in tissues; animal RM71, 1 day postinfusion, pretreatment 31%",43%
same,"CD3+ T cells in mesenteric LNs, area fraction","CD3+ T cells in tissues; animals RM32 and RM33, 1 day postinfusion vs pretreatment, p > 0.05",virtually unchanged
same,GI tract terminal half-life relative to plasma,[4],1.8 fold
same,LN terminal half-life relative to plasma,[4],seven-fold longer
same,plasma concentration at 8 h postinfusion,[4],5.16 nM
same,time with quantifiable concentrations in GI tract,[4]; last sampling 10 days,10 days postinfusion
same,time with quantifiable concentrations in LNs,[4]; last sampling 10 days,10 days postinfusion
same,mean terminal half-life in plasma,"[4]; 3 SIV-naïve RMs, kel from semi-log regression of individual plasma data, observations after 96 h omitted",15.3 h
same,RMD concentration in intestine at 4 h postinfusion,[4]; animal RM32,354 ng/g
same,RMD plasma concentration at 2 h postinfusion,"[4]; animal RM32, LC-MS/MS",47 ng/mL
same,RMD concentration in intestine at 4 h postinfusion,[4]; animal RM33,"3,932 ng/g"
same,RMD plasma concentration at 2 h postinfusion,"[4]; animal RM33, LC-MS/MS",7.7 ng/mL and 8 ng/mL
same,RMD plasma concentration at 2 h postinfusion,"[4]; animal RM71, LC-MS/MS",4.7 ng/mL and 5 ng/mL
same,plasma concentration at 2 h postinfusion,[4]; group value of 3 RMs,0.0199 µg/mL
same,RMD concentration in LNs at 4 h postinfusion,"[4]; individual values of 3 RMs, superficial LNs, tissue density 1.0 g/ml assumed, LC-MS/MS",70 ng/mL and 75 ng/mL and 101 ng/mL
same,mean terminal half-life in gastrointestinal tract,[4]; [7],28 h
same,mean terminal half-life in lymph nodes,[4]; [7],110 h
same,"RMD concentration in GI tract at 4 h postinfusion, median","[4]; median of 3 RMs, intestinal biopsies, LC-MS/MS","3,665 ng/g"
